Test results from patent US9783527B2, “Indazole ureas and method of use” (AbbVie Inc., priority 2014, dated 2017).

Target: human Nav1.7 (Homo sapiens (Human), UniProt Q15858)
Assay: FRET-based membrane potential assay, recombinant human sodium channel Nav1.7
Assay type: cell-based
Conditions: HEK293 cells stably expressing recombinant human Nav1.7; depolarization with veratridine (EC80) + scorpion venom
Procedure: FRET-Based Membrane Potential Assays.
Recombinant, Human Sodium Channel, Nav1.7.
Two days prior to the experiment, frozen HEK293 cells stably expressing recombinant human Nav1.7 were quickly thawed and plated at 25,000 cells/well in growth medium [DMEM (Invitrogen #11965) with 10% HI FBS (Invitrogen #10082), 2 mM glutamine, 100 units/mL penicillin, 0.1 mg/mL streptomycin (PSG, Sigma #G1146), and 500 μg/mL Geneticin (Invitrogen #10131)] in black-walled, clear-bottom 384-well poly-D-lysine-coated assay plates (Greiner Bio-One, Frickenhausen, Germany) and incubated in a humidified 5% CO2 incubator at 37° C. On the day of the assay, medium was removed by aspiration, and cells were washed with assay buffer [HBSS (Invitrogen, Carlsbad, Calif.) containing 20 mM HEPES (Invitrogen, Carlsbad, Calif.)]. After washing, 30 μL assay buffer containing the fluorescent voltage-sensor probe CC2-DMPE (Invitrogen, Carlsbad, Calif.) at 20 μM and 0.01% pluronic F-127 (Invitrogen, Carlsbad, Calif.) was added to the cells. Cells were incubated for 40 minutes at room temperature in the dark. Following the incubation, the cells were washed and 30 μL assay buffer containing 2.5 μM DiSBAC2(3) substrate (Invitrogen, Carlsbad, Calif.) and 0.5 mM VABSC-1 (Invitrogen, Carlsbad, Calif.) was added to the cells. The cells were incubated for 90 minutes at room temperature in the dark. Fluorescence readings were made using a FLIPR®^TETRA (Molecular Devices, Sunnyvale Calif.) equipped with voltage-sensor probe optics. At the start of each experiment the optimal (EC80) concentration of depolarizing agent (veratridine) was determined by testing a dilution curve of assay buffer containing veratridine (Sigma-Aldrich, St. Louis, Mo.) and 1 mg/mL scorpion venom (SVqq, from Leiurus quinquestriatus; Sigma-Aldrich, St. Louis, Mo.). […] Test compounds in the daughter plate were diluted to (˜3×) solutions in assay buffer immediately before assaying. Using the FLIPR®^TETRA, 20 μL of the (3×) compound solutions were first added to the cells, then 20 μL of depolarizing solution (3×EC80 veratridine+SVqq) were added 3 minutes later to activate the channel. Changes in fluorescence were measured at wavelengths of 440-480 nm and 565-625 nm over the course of the experimental run. Membrane depolarization was expressed as a ratio of the maximum F440-480 nm/F565-625 nm reading above average baseline F440-480 nm/F565-625 nm reading. IC50 values were calculated from curve fits of the ratio data using a four-parameter logistic Hill equation (Accelrys Assay Explorer 3.3 Client, Accelrys, San Diego, Calif.) with percent inhibition plotted against compound concentration.

human Nav1.7, sequence (Q15858 whole entry): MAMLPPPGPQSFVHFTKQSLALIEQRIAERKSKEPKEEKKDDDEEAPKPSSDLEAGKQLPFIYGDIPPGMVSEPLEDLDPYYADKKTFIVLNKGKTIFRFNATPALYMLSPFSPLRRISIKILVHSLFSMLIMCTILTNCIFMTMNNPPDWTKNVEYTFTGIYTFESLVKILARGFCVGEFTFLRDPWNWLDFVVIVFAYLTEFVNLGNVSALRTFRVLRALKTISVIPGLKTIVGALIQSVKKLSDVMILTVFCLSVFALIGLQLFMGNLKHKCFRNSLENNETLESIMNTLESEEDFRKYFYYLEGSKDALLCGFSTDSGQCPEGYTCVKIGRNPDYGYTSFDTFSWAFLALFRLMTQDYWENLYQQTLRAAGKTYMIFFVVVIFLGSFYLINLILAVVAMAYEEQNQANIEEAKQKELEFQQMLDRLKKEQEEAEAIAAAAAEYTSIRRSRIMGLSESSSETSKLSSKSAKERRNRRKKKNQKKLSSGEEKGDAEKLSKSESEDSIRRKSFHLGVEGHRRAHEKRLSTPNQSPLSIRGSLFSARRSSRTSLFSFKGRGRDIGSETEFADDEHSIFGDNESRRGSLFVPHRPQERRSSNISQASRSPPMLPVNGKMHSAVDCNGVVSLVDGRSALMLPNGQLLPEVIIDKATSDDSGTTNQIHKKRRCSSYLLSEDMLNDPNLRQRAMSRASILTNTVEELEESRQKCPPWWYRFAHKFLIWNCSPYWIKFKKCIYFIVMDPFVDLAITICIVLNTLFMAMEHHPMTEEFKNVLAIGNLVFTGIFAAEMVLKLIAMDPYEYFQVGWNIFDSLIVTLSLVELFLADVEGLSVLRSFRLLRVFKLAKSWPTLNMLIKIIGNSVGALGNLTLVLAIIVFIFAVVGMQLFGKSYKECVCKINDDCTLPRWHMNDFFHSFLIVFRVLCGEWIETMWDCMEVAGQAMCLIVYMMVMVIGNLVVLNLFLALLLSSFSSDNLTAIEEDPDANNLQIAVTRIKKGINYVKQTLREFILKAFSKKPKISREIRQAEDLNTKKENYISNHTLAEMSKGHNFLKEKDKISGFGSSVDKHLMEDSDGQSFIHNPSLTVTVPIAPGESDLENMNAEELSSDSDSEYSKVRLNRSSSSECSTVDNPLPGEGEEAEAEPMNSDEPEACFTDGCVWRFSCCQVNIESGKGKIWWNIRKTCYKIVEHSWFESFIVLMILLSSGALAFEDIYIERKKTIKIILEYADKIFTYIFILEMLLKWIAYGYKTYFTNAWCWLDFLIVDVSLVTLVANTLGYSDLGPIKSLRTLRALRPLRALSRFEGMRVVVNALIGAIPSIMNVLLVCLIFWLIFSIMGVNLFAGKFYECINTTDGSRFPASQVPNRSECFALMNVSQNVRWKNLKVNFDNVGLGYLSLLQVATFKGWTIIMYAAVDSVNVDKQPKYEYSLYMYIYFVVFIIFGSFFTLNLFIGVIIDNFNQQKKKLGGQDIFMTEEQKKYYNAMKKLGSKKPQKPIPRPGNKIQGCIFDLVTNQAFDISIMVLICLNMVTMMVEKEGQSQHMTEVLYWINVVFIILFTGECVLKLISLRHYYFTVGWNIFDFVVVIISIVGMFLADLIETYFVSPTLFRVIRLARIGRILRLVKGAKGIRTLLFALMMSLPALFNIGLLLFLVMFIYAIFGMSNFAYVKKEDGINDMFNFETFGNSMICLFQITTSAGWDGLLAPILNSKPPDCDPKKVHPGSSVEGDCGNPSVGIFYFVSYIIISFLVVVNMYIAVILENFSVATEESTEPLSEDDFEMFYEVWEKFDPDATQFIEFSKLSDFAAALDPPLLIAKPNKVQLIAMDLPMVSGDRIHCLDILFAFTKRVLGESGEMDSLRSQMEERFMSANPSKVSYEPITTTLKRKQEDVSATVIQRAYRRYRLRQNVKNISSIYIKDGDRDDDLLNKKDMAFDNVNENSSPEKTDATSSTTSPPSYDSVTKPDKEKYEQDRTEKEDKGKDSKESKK

For `CN1CCCC2CN(C(=O)CN3CCN(c4cccc5c4cnn5-c4ccccc4F)C3=O)CC21` (stereo not shown) [Example 112, 1-[1-(2-fluorophenyl)-1H-indazol-4-yl]-3-[2-(1-methyloctahydro-6H-pyrrolo[3,4-b]pyridin-6-yl)-2-oxoethyl]imidazolidin-2-one], the IC50 was 2690 nM.

`CC(C)c1nnc(CN2CCN(c3cccc4c3cnn4-c3ccccc3F)C2=O)o1` [Example 256, 1-[1-(2-fluorophenyl)-1H-indazol-4-yl]-3-[(5-isopropyl-1,3,4-oxadiazol-2-yl)methyl]imidazolidin-2-one] gave an IC50 of 3120 nM.

Compound `O=C(CN1CCN(c2cccc3c2cnn3-c2ccccc2F)C1=O)c1ccc2c(c1)OCO2` [Example 153, 1-[2-(1,3-benzodioxol-5-yl)-2-oxoethyl]-3-[1-(2-fluorophenyl)-1H-indazol-4-yl]imidazolidin-2-one] has an IC50 of 1320 nM.

With `O=C(CN1CCN(c2cccc3c2cnn3-c2ccccc2F)C1=O)N1CCC(C(F)F)C1` (stereo not shown) [Example 330, 1-{2-[3-(difluoromethyl)pyrrolidin-1-yl]-2-oxoethyl}-3-[1-(2-fluorophenyl)-1H-indazol-4-yl]imidazolidin-2-one] the IC50 was 1150 nM.

`O=C1N(Cc2nc3ccccc3s2)CCN1c1cccc2c1cnn2-c1ccccc1F` [Example 179, 1-(1,3-benzothiazol-2-ylmethyl)-3-[1-(2-fluorophenyl)-1H-indazol-4-yl]imidazolidin-2-one] gave an IC50 of 15400 nM.

Compound `CC(C)C1CCCN1C(=O)CN1CCN(c2cccc3c2cnn3-c2ccccc2F)C1=O` (stereo not shown) [Example 116, 1-[1-(2-fluorophenyl)-1H-indazol-4-yl]-3-[2-(2-isopropylpyrrolidin-1-yl)-2-oxoethyl]imidazolidin-2-one] has an IC50 of 821 nM.

With `O=C1N(Cc2ncccn2)CCN1c1cccc2c1cnn2-c1ccccc1F` [Example 218, 1-[1-(2-fluorophenyl)-1H-indazol-4-yl]-3-(pyrimidin-2-ylmethyl)imidazolidin-2-one] the IC50 was 2760 nM.

With `O=C1N(CC(=O)N2C[C@@H](O)C[C@@H]2c2cc(F)ccc2F)CCN1c1cccc2c1cnn2-c1ccccc1F` [Example 122, 1-{2-[(2R,4S)-2-(2,5-difluorophenyl)-4-hydroxypyrrolidin-1-yl]-2-oxoethyl}-3-[1-(2-fluorophenyl)-1H-indazol-4-yl]imidazolidin-2-one] the IC50 was 2300 nM.

`O=C1N(Cc2ccncn2)CCN1c1cccc2c1cnn2-c1ccccc1F` [Example 222, 1-[1-(2-fluorophenyl)-1H-indazol-4-yl]-3-(pyrimidin-4-ylmethyl)imidazolidin-2-one] was tested, and the IC50 was 11200 nM.

In the case of `CC(C)C(O)CN1CCN(c2cccc3c2cnn3-c2ccccc2F)C1=O` (stereo not shown) [Example 163, 1-[1-(2-fluorophenyl)-1H-indazol-4-yl]-3-(2-hydroxy-3-methylbutyl)imidazolidin-2-one], the IC50 is reported as 2160 nM.

Work on `O=C1N(c2cccc3c2cnn3-c2ccccc2F)CCN1[C@H]1CO[C@@H](c2ccccc2F)C1` [Example 185, 1-[1-(2-fluorophenyl)-1H-indazol-4-yl]-3-[(3R,5R)-5-(2-fluorophenyl)tetrahydrofuran-3-yl]imidazolidin-2-one] yielded an IC50 of 965 nM.

In the case of `CS(=O)(=O)N1CC(N2CCN(c3cccc4c3cnn4-c3ccccc3F)C2=O)C1` [Example 271, 1-[1-(2-fluorophenyl)-1H-indazol-4-yl]-3-[1-(methylsulfonyl)azetidin-3-yl]imidazolidin-2-one], the IC50 is reported as 3450 nM.

Compound `CCC(O)(CC(C)C)CN1CCN(c2cccc3c2cnn3-c2ccccc2F)C1=O` (stereo not shown) [Example 148, 1-(2-ethyl-2-hydroxy-4-methylpentyl)-3-[1-(2-fluorophenyl)-1H-indazol-4-yl]imidazolidin-2-one] has an IC50 of 2280 nM.

`N#C[C@H]1CCCN1C(=O)CN1CCN(c2cccc3c2cnn3-c2ccccc2F)C1=O` [Example 201, (2R)-1-({3-[1-(2-fluorophenyl)-1H-indazol-4-yl]-2-oxoimidazolidin-1-yl}acetyl)pyrrolidine-2-carbonitrile] gave an IC50 of 661 nM.

`COCCN1CCN(c2cccc3c2cnn3-c2ccccc2F)C1=O` [Example 59, 1-[1-(2-fluorophenyl)-1H-indazol-4-yl]-3-(2-methoxyethyl)imidazolidin-2-one] was tested, and the IC50 was 1890 nM.

In the case of `O=C(CN1CCN(c2cccc3c2cnn3-c2ccccc2F)C1=O)c1ccccc1` [Example 143, 1-[1-(2-fluorophenyl)-1H-indazol-4-yl]-3-(2-oxo-2-phenylethyl)imidazolidin-2-one], the IC50 is reported as 874 nM.

For `O=C1N(c2cccnn2)CCN1c1cccc2c1cnn2-c1ccccc1F` [Example 208, 1-[1-(2-fluorophenyl)-1H-indazol-4-yl]-3-(pyridazin-3-yl)imidazolidin-2-one], the IC50 was 3260 nM.

In the case of `Cc1cncc(CN2CCN(c3cccc4c3cnn4-c3ccccc3F)C2=O)c1` [Example 228, 1-[1-(2-fluorophenyl)-1H-indazol-4-yl]-3-[(5-methylpyridin-3-yl)methyl]imidazolidin-2-one], the IC50 is reported as 1090 nM.

`O=C(CN1CCN(c2cccc3c2cnn3-c2ccccc2F)C1=O)N1C[C@@H]2[C@@H]3CC[C@@H](C3)[C@@H]2C1` [Example 111, 1-[1-(2-fluorophenyl)-1H-indazol-4-yl]-3-{2-[(3aR,4R,7S,7aS)-octahydro-2H-4,7-methanoisoindol-2-yl]-2-oxoethyl}imidazolidin-2-one] was tested, and the IC50 was 835 nM.

For `O=C(CN1CCN(c2cccc3c2cnn3-c2ccccc2F)C1=O)NCc1cccc(F)c1` [Example 173, N-(3-fluorobenzyl)-2-{3-[1-(2-fluorophenyl)-1H-indazol-4-yl]-2-oxoimidazolidin-1-yl}acetamide], the IC50 was 800 nM.

For `O=C(CN1CCN(c2cccc3c2cnn3-c2ccccc2F)C1=O)N1CCN2CCC[C@H]2C1` [Example 99, 1-[1-(2-fluorophenyl)-1H-indazol-4-yl]-3-{2-[(8aS)-hexahydropyrrolo[1,2-c]pyrazin-2(1H)-yl]-2-oxoethyl}imidazolidin-2-one], the IC50 was 482 nM.

Compound `CC[C@@H](CO)N1CCN(c2cccc3c2cnn3-c2ccccc2F)C1=O` [Example 159, 1-[1-(2-fluorophenyl)-1H-indazol-4-yl]-3-[(2S)-1-hydroxybutan-2-yl]imidazolidin-2-one] has an IC50 of 3590 nM.

`C[C@@H]1CN(c2cccc3c2cnn3-c2ccccc2F)C(=O)N1C(=O)OC(C)(C)C` [Example 241, tert-butyl (5R)-3-[1-(2-fluorophenyl)-1H-indazol-4-yl]-5-methyl-2-oxoimidazolidine-1-carboxylate] was tested, and the IC50 was 2350 nM.

`Cc1noc([C@@H](C)N2CCN(c3cccc4c3cnn4-c3ccc(F)cc3F)C2=O)n1` [Example 253, 1-[1-(2,4-difluorophenyl)-1H-indazol-4-yl]-3-[(1R)-1-(3-methyl-1,2,4-oxadiazol-5-yl)ethyl]imidazolidin-2-one] showed an IC50 of 932 nM.

In the case of `COc1cccc(C(=O)CN2CCN(c3cccc4c3cnn4-c3ccccc3F)C2=O)c1` [Example 149, 1-[1-(2-fluorophenyl)-1H-indazol-4-yl]-3-[2-(3-methoxyphenyl)-2-oxoethyl]imidazolidin-2-one], the IC50 is reported as 2970 nM.

Compound `CC(C)[C@@H]1CCCN1C(=O)CN1CCN(c2cccc3c2cnn3-c2ccccc2F)C1=O` [Example 125, 1-[1-(2-fluorophenyl)-1H-indazol-4-yl]-3-{2-[(2S)-2-isopropylpyrrolidin-1-yl]-2-oxoethyl}imidazolidin-2-one] has an IC50 of 1410 nM.

With `CC(C)OC1CN(C(=O)CN2CCN(c3cccc4c3cnn4-c3ccccc3F)C2=O)C1` [Example 67, 1-[1-(2-fluorophenyl)-1H-indazol-4-yl]-3-[2-(3-isopropoxyazetidin-1-yl)-2-oxoethyl]imidazolidin-2-one] the IC50 was 2430 nM.

`O=C1N(c2cncs2)CCN1c1cccc2c1cnn2-c1ccccc1F` [Example 158, 1-[1-(2-fluorophenyl)-1H-indazol-4-yl]-3-(1,3-thiazol-5-yl)imidazolidin-2-one] showed an IC50 of 20000 nM.

Compound `O=C1N(c2cccc3c2cnn3-c2ccccc2F)CCN1C1CNC1` [Example 268, 1-(azetidin-3-yl)-3-[1-(2-fluorophenyl)-1H-indazol-4-yl]imidazolidin-2-one] has an IC50 of 15000 nM.

`CC(C)C[C@H](O)CN1CCN(c2cccc3c2cnn3-c2ccccc2F)C1=O` [Example 156, 1-[1-(2-fluorophenyl)-1H-indazol-4-yl]-3-[(2S)-2-hydroxy-4-methylpentyl]imidazolidin-2-one] was tested, and the IC50 was 1350 nM.

For `CC(C)[C@H]1CCCN1C(=O)CN1CCN(c2cccc3c2cnn3-c2ccccc2F)C1=O` [Example 126, 1-[1-(2-fluorophenyl)-1H-indazol-4-yl]-3-{2-[(2R)-2-isopropylpyrrolidin-1-yl]-2-oxoethyl}imidazolidin-2-one], the IC50 was 343 nM.
